Reference: patent US20150231147A1, “METHODS FOR ACUTE AND LONG-TERM TREATMENT OF DRUG ADDICTION” (DemeRx, Inc., priority 2014, published 2015)

Test: Plasma noribogaine glucuronide pharmacokinetics after noribogaine dosing, healthy volunteers
Assay type: in vivo, human
Conditions: for AUC0-216 / AUC0-∞ / Cmax / Tmax / t1/2: healthy male volunteers, mean (n = 6)
[1] = plasma glucuronide after single oral 30 mg noribogaine
[2] = plasma glucuronide after single oral 60 mg noribogaine

With `CC[C@H]1C[C@@H]2C[C@H]3c4[nH]c5ccc(OC6OC(C(=O)O)C(O)C(O)C6O)cc5c4CCN(C2)[C@@H]13` (some centres unmarked) [Noribogaine glucuronide] the “Mean half-life of plasma noribogaine glucuronide” value (30 mg and 60 mg noribogaine dose groups) was 21 to 23 h, the “proportion of noribogaine glucuronide Cmax and AUC relative to noribogaine” value (both dose groups (30 mg and 60 mg)) was 3-4% and the AUC0-216 [1] was 25.7 ng·h/mL. For the same molecule, the “AUC0-∞” value [1] was 25.8 ng·h/mL, the Cmax [1] was 1.8 ng/mL and the Tmax [1] was 3.0 h. For the same molecule, the t1/2 [1] was 20.6 h, the AUC0-216 [2] was 65.0 ng·h/mL and the “AUC0-∞” value [2] was 67.1 ng·h/mL. The Cmax [2] was 4.1 ng/mL, the Tmax [2] was 3.8 h and the t1/2 [2] was 23.1 h. For the same molecule, the “time of peak concentrations after noribogaine dosing” value (plasma glucuronide, 30 mg and 60 mg noribogaine dose groups) was 3 to 4 h and the “time by which noribogaine glucuronide was detected in all subjects” value (plasma, 30 mg and 60 mg noribogaine dose groups) was at most 0.75 h.
